Measured values from article PMC7287880, “Structural Basis for Broad Substrate Selectivity of Alcohol Dehydrogenase YjgB from Escherichia coli” (Molecules, 2020).

Target: T1, EcYjgB (YjgB) (Escherichia coli, UniProt P27250)
T1 construct: gene ahr; full-length, C-terminal 6xHis tag (pET30a), recombinant in E. coli BL21(DE3), purified by Ni-NTA and size exclusion; Zn-containing dimer
T1 sequence (P27250 1-339): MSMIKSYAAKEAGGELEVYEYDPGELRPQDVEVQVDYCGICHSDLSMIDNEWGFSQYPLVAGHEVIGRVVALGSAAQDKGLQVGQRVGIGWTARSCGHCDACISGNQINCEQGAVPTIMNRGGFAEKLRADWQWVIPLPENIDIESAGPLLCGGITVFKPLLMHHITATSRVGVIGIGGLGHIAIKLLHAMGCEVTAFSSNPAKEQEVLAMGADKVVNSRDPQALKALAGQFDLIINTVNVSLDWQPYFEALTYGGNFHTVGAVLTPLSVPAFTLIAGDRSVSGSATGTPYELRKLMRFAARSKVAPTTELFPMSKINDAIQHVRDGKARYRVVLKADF
Test: X-ray crystal structure of soaked crystal, […] A
Format: binding
Settings: apo crystals soaked with 5 mM NADP for 30 min at 7 C; Zn-bound; PEG fragment in substrate pocket; Rossmann-fold cofactor site

Compound: NC(=O)c1ccc[n+]([C@@H]2O[C@H](COP(=O)(O)OP(=O)(O)OC[C@H]3O[C@@H](n4cnc5c(N)ncnc54)[C@H](OP(=O)(O)O)[C@@H]3O)[C@@H](O)[C@H]2O)c1 [NADP]
- X-ray crystal structure of soaked crystal, 2.00 A: The electron density of NADP is clearly shown in the NADP(H) binding site
